Common to all, as to format: in vivo
The test system of data set [1] is Corn Earworm (Helicoverpa zea, HELIZE) ("CEW"). In words: Bioassays on CEW, 128-well diet tray assay. The following applies: 168 h, second instar larvae, 50 μg/cm^2 on artificial diet, 25° C., five to seven days, average of eight wells, read-out: CEW % Control (or Mortality) rating. The method, then:
Certain molecules disclosed in this document were tested against BAW, CEW, and CL using procedures described in the following examples. In the reporting of the results, the “BAW, CEW, & CL Rating Table” was used (See Table Section).
Bioassays on CEW were conducted using a 128-well diet tray assay. one to five second instar CEW larvae were placed in each well (3 mL) of the diet tray that had been previously filled with 1 mL of artificial diet to which 50 μg/cm^2 of the test compound (dissolved in 50 μL of 90:10 acetone-water mixture) had been applied (to each of eight wells) and then allowed to dry. Trays were covered with a clear self-adhesive cover, and held at 25° C., 14:10 light-dark for five to seven days. Percent mortality was recorded for the larvae in each well; activity in the eight wells was then averaged. The results are indicated in the table entitled “Table ABC: Biological Results” (See Table Section). Bioassays on CL

The subject of data set [2] is Beet Armyworm (Spodoptera exigua, LAPHEG) ("BAW"). In words: Bioassays on BAW, 128-well diet tray assay. As to conditions: 168 h, second instar larvae, 50 μg/cm^2 on artificial diet, 25° C., five to seven days, average of eight wells, read-out: BAW % Control (or Mortality) rating. An outline of the steps:
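One to five second-instar larvae were placed per well on artificial diet surface-treated with 50 μg/cm^2 compound from 90:10 acetone-water, dried before infestation. Trays were held at 25 °C, 14:10 light-dark, for five to seven days. Percent mortality was averaged over eight wells.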

Data set [3] deals with Yellow Fever Mosquito (Aedes aegypti, AEDSAE) ("YFM"). As to the kind of experiment: Bioassays on YFM, 96-well plate larval assay. As to conditions: about 1 day-old larvae, from 4000 ppm DMSO master plate diluted, room temperature, scored after 3 days. An outline of the steps:
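Compounds from 4000 ppm DMSO master plates, diluted in 90:10 water:acetone, dispensed into 96-well plates, six replicates. About 1-day-old larvae added in liver-powder water. Wells covered, held 3 days at room temperature, then scored for mortality.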

Data set [4] has as its system Cabbage Looper (Trichoplusia ni, TRIPNI) ("CL"). As to the kind of experiment: Bioassays on CL, 128-well diet tray assay. The following applies: 168 h, second instar larvae, 50 μg/cm^2 on artificial diet, 25° C., five to seven days, average of eight wells, read-out: CL % Control (or Mortality) rating. The procedure, abridged:
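Second-instar larvae (one to five per well) on artificial diet surface-treated with 50 μg/cm^2 compound in 90:10 acetone-water, eight wells per treatment. Held at 25° C., 14:10 light-dark for five to seven days. Percent mortality scored per well and averaged over the eight wells.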

The results in this text go back to patent US9445594B2, “Molecules having certain pesticidal utilities, intermediates, compositions, and processes, related thereto” (priority 2014, dated 2016).

For orientation: mortality means the share of the test organisms that died.

For the compound `CC(C)c1ccccc1NC(=S)Nc1ccc(-c2ncn(-c3ccc(OC(F)(F)F)cc3)n2)cc1` [F3, 1-(2-isopropylphenyl)-3-(4-(1-(4-(trifluoromethoxy)phenyl)-1H-1,2,4-triazol-3-yl)phenyl)thiourea], the mortality at 50 µg/cm2 in data set [1] and in data set [2] was 50 to 100% in each case.

For `N#Cc1ccc(NC(=S)Nc2ccc(-c3ncn(-c4ccc(OC(F)(F)F)cc4)n3)cc2)cc1` [F7, 1-(4-Cyanophenyl)-3-(4-(1-(4-(trifluoromethoxy)phenyl)-1H-1,2,4-triazol-3-yl)phenyl)thiourea], the mortality at 50 µg/cm2 in data set [1] and in data set [2] was 0% each time.

As to `FC(F)(F)Oc1ccc(-n2cnc(-c3ccc(NC(=S)Nc4cnccc4C(F)(F)F)cc3)n2)cc1` [F12, 1-(4-(1-(4-(trifluoromethoxy)phenyl)-1H-1,2,4-triazol-3-yl)phenyl)-3-(4-(trifluoromethyl)pyridin-3-yl)thiourea], the mortality at 50 µg/cm2 in data set [1] and in data set [2] was 0% each time.

`CCOc1ccc(NC(=S)Nc2ccc(-c3ncn(-c4ccc(OC(F)(F)F)cc4)n3)cc2)cn1` [F14, 1-(6-Ethoxypyridin-3-yl)-3-(4-(1-(4-(trifluoromethoxy)phenyl)-1H-1,2,4-triazol-3-yl)phenyl)thiourea]: the mortality at 50 µg/cm2 in data set [1] and in data set [2] was 0% each time.

In the case of `O=C(Nc1ccc(F)cc1)Nc1ccc(-c2ncn(-c3ccc(OC(F)(F)F)cc3)n2)cc1` [F17, 1-(4-fluorophenyl)-3-(4-(1-(4-(trifluoromethoxy)phenyl)-1H-1,2,4-triazol-3-yl)phenyl)urea], the mortality at 50 µg/cm2 in data set [1] and in data set [2] was 0% in each case. For the same compound, the “YFM % Control (or Mortality) rating” value in data set [3] was “D (No activity noticed in this bioassay)”.

As for `O=C(Nc1ccc(-c2ncn(-c3ccc(OC(F)(F)F)cc3)n2)cc1)Nc1ccccc1-c1ccco1` [F21, 1-(2-(Furan-2-yl)phenyl)-3-(4-(1-(4-(trifluoromethoxy)phenyl)-1H-1,2,4-triazol-3-yl)phenyl)urea], the mortality at 50 µg/cm2 in data set [1], in data set [2] and in data set [4] was 50 to 100% each time. Moreover, the “YFM % Control (or Mortality) rating” value in data set [3] is “D (No activity noticed in this bioassay)”.

As for `FC(F)(F)Oc1ccc(-n2cnc(-c3ccc(NC(=S)Nc4ccccc4-c4noc(C5CC5)n4)cc3)n2)cc1` [F23, 1-(2-(5-Cyclopropyl-1,2,4-oxadiazol-3-yl)phenyl)-3-(4-(1-(4-(trifluoromethoxy)phenyl)-1H-1,2,4-triazol-3-yl)phenyl)thiourea], the mortality at 50 µg/cm2 in data set [1], in data set [2] and in data set [4] was 50 to 100% in each case. The “YFM % Control (or Mortality) rating” value in data set [3] is listed as “A (80-100)”.

On to `FC(F)(F)Oc1ccc(-n2cnc(-c3ccc(NC(=S)Nc4ccc5ccccc5c4)cc3)n2)cc1` [F25, 1-(Naphthalen-2-yl)-3-(4-(1-(4-(trifluoromethoxy)phenyl)-1H-1,2,4-triazol-3-yl)phenyl)thiourea], for which the mortality at 50 µg/cm2 in data set [1] and in data set [2] was 50 to 100% throughout.

On to `CSc1ccc(NC(=S)Nc2ccc(-c3ncn(-c4ccc(OC(F)(F)F)cc4)n3)cc2)cn1` [F27, 1-(6-(Methylthio)pyridin-3-yl)-3-(4-(1-(4-(trifluoromethoxy)phenyl)-1H-1,2,4-triazol-3-yl)phenyl)thiourea], for which the mortality at 50 µg/cm2 in data set [1] and in data set [2] was 0% each time.

Consider `Cc1ccc(C(C)C)c(NC(=S)NCCCc2ccc(-c3ncn(-c4ccc(OC(F)(F)F)cc4)n3)cc2)c1` [F29, 1-(2-isopropyl-5-methylphenyl)-3-(3-(4-(1-(4-(trifluoromethoxy)phenyl)-1H-1,2,4-triazol-3-yl)phenyl)propyl)thiourea], for which the mortality at 50 µg/cm2 in data set [1], in data set [2] and in data set [4] was 50 to 100% in each case. The “YFM % Control (or Mortality) rating” value in data set [3] is recorded as “A (80-100)”.

For `FC(F)(F)Oc1ccc(-n2cnc(-c3ccc(NC(=S)Nc4ccccc4-c4ccco4)cc3)n2)cc1` [F30, 1-(2-(Furan-2-yl)phenyl)-3-(4-(1-(4-(trifluoromethoxy)phenyl)-1H-1,2,4-triazol-3-yl)phenyl)thiourea], the mortality at 50 µg/cm2 in data set [1], in data set [2] and in data set [4] was 50 to 100% throughout. Further, the “YFM % Control (or Mortality) rating” value in data set [3] is “A (80-100)”.

For the compound `CC(C)c1ccccc1NC(=O)NCc1ccc(-c2ncn(-c3ccc(OC(F)(F)C(F)(F)F)cc3)n2)cc1` [F34, 1-(2-isopropylphenyl)-3-(4-(1-(4-(perfluoroethoxy)phenyl)-1H-1,2,4-triazol-3-yl)benzyl)urea], the mortality at 50 µg/cm2 in data set [1] is 50 to 100%; in data set [2], 0%; in data set [4] it was 50 to 100%.

Take `O=C(Nc1ccc(-c2ncn(-c3ccc(OC(F)(F)F)cc3)n2)cc1)Nc1ccccc1C1CC1` [F40, 1-(2-cyclopropylphenyl)-3-(4-(1-(4-(trifluoromethoxy)phenyl)-1H-1,2,4-triazol-3-yl)phenyl)urea]: the mortality at 50 µg/cm2 in data set [1], in data set [2] and in data set [4] was 50 to 100% each time.

`COc1ccc(NC(=S)Nc2ccc(-c3ncn(-c4ccc(OC(F)(F)F)cc4)n3)cc2)c(C)c1` [F43, 1-(4-Methoxy-2-methylphenyl)-3-(4-(1-(4-(trifluoromethoxy)phenyl)-1H-1,2,4-triazol-3-yl)phenyl)thiourea]: the mortality at 50 µg/cm2 in data set [1] and in data set [2] was 50 to 100% each time.

In the case of `CC(C)n1cnnc1-c1ccccc1NC(=S)Nc1ccc(-c2ncn(-c3ccc(OC(F)(F)F)cc3)n2)cc1` [F48, 1-(2-(4-isopropyl-4H-1,2,4-triazol-3-yl)phenyl)-3-(4-(1-(4-(trifluoromethoxy)phenyl)-1H-1,2,4-triazol-3-yl)phenyl)thiourea], the mortality at 50 µg/cm2 in data set [1] is 0 to 50%; in data set [2] it was 50 to 100%; in data set [4] it was 50 to 100%. For the same compound, the “YFM % Control (or Mortality) rating” value in data set [3] is reported as “A (80-100)”.

Take `CC(C)n1cnnc1-c1ccccc1NC(=O)Nc1ccc(-c2ncn(-c3ccc(OC(F)(F)F)cc3)n2)cc1` [F55, 1-(2-(4-Isopropyl-4H-1,2,4-triazol-3-yl)phenyl)-3-(4-(1-(4-(trifluoromethoxy)phenyl)-1H-1,2,4-triazol-3-yl)phenyl)urea]: the mortality at 50 µg/cm2 in data set [1] is 0%; in data set [2], 50 to 100%; in data set [4], 50 to 100%. The “YFM % Control (or Mortality) rating” value in data set [3] is recorded as “A (80-100)”.

Consider `Cc1ccc(C(C)C)c(NC(=O)Nc2ccc(-c3ncn(-c4ccc(OC(F)(F)C(F)(F)F)cc4)n3)cc2)c1` [F57, 1-(2-Isopropyl-5-methylphenyl)-3-(4-(1-(4-(perfluoroethoxy)phenyl)-1H-1,2,4-triazol-3-yl)phenyl)urea], for which the mortality at 50 µg/cm2 in data set [1], in data set [2] and in data set [4] was 50 to 100% throughout. In data set [3], the “YFM % Control (or Mortality) rating” value is listed as “D (No activity noticed in this bioassay)”.

As to `COc1ccc(NC(=S)Nc2ccc(-c3ncn(-c4ccc(OC(F)(F)F)cc4)n3)cc2)cc1` [F71, 1-(4-Methoxyphenyl)-3-(4-(1-(4-(trifluoromethoxy)phenyl)-1H-1,2,4-triazol-3-yl)phenyl)thiourea], the mortality at 50 µg/cm2 in data set [1] and in data set [2] was 50 to 100% each time.

Take `O=C(NCc1ccc(-c2ncn(-c3ccc(OC(F)(F)C(F)(F)F)cc3)n2)cc1)Nc1ccccc1-c1ccccc1` [F73, 1-([1,1′-Biphenyl]-2-yl)-3-(4-(1-(4-(perfluoroethoxy)phenyl)-1H-1,2,4-triazol-3-yl)benzyl)urea]: the mortality at 50 µg/cm2 in data set [1], in data set [2] and in data set [4] was 50 to 100% each time.

For the compound `FC(F)(F)Oc1ccc(-n2cnc(-c3ccc(NC(=S)Nc4ccccc4-n4cccc4)cc3)n2)cc1` [F74, 1-(2-(1H-Pyrrol-1-yl)phenyl)-3-(4-(1-(4-(trifluoromethoxy)phenyl)-1H-1,2,4-triazol-3-yl)phenyl)thiourea], the mortality at 50 µg/cm2 in data set [1], in data set [2] and in data set [4] was 50 to 100% in each case.
